Measurements published in US20240108702A1, “Use Of Naturally Occurring Cyclic Peptides For Treatment Of SARS-COV-2 Infection” (The University of Southern California, priority 2021, published 2024).
Like-named read-outs stand apart in the source and are kept apart here. Where a SMILES comes first, the peptide text is derived from it. Bridges are numbered along the chain shown (N, C = ends).

Conditions: for LOAEL: i.v.
[1] = female rats, 5 mg/kg/day, Day 8, median
[2] = female rats, 10 mg/kg/day, Day 8, median
[3] = female rats, 20 mg/kg, Day 2, median
[4] = male rats, 5 mg/kg/day, Day 8, median
[5] = male rats, 10 mg/kg/day, Day 8, median
[6] = male rats, 20 mg/kg, Day 2, median

CC[C@H](C)[C@@H]1NC(=O)[C@@H]2CSSC[C@H](NC(=O)[C@H](CCCNC(=N)N)NC(=O)[C@@H]3CSSC[C@H](NC1=O)C(=O)N[C@@H]([C@@H](C)O)C(=O)N[C@@H](CCCNC(=N)N)C(=O)NCC(=O)N[C@@H](Cc1ccccc1)C(=O)N3)C(=O)N[C@@H](CC(C)C)C(=O)N[C@H]1CSSC[C@H](NC(=O)[C@H](C(C)C)NC(=O)CNC(=O)[C@H](CCCNC(=N)N)NC(=O)[C@H](CCCNC(=N)N)NC1=O)C(=O)N[C@@H](CCCNC(=N)N)C(=O)N2 [Peptide 1] (cyclo(GFCRCLCRRGVCRCICTR); disulfide 3-16, 5-14, 7-12)
LOAEL (Sprague-Dawley rats, study duration 7 days (Table 8)): 20 mg/kg/day
mortality (determined unrelated to treatment) (female rats, 5 mg/kg dose group, found dead Day 15): 1 out of 16
A/G [1]: 2.10
ALP [1]: 92.0 U/L
ALT [1]: 35.0 U/L
APTT [1]: 10.6 s
AST [1]: 139.0 U/L
Albumin [1]: 3.9 g/dL
Basophils [1]: 0.3%
Basophils absolute [1]: 0.02 10^3/mm^3
CK [1]: 792 U/L
Calcium [1]: 9.80 mg/dL
Chloride [1]: 105.0 mmol/L
Cholesterol [1]: 55.0 mg/dL
Creatinine [1]: 0.3 mg/dL
Eosinophils [1]: 3.6%
Eosinophils absolute [1]: 0.30 10^3/mm^3
Fibrinogen [1]: 223 mg/dL
GGT [1]: 0.0 U/L
Globulin [1]: 1.8 g/dL
Glucose [1]: 97 mg/dL
HDW [1]: 2.37 g/dL
Hct [1]: 40.5%
Hemoglobin [1]: 13.5 g/dL
K [1]: 4.9 mmol/L
LUC [1]: 0.3%
LUC absolute [1]: 0.02 10^3/mm^3
Lymphocyte absolute [1]: 4.78 10^3/mm^3
Lymphocytes [1]: 68.1%
MCH [1]: 19.1 pg
MCHC [1]: 33.4 g/dL
MCV [1]: 57.9 fL
Monocyte absolute [1]: 0.17 10^3/mm^3
Monocytes [1]: 2.6%
Na [1]: 143 mmol/L
Neutrophil absolute [1]: 1.33 10^3/mm^3
Neutrophils [1]: 26.7%
PT [1]: 16.3 s
Phos [1]: 7.3 mg/dL
Platelets [1]: 801 10^3/mm^3
RBC [1]: 6.88 10^6/mm^3
RDW [1]: 12.7%
Reticulocytes [1]: 3.9%
Reticulocytes absolute [1]: 256.7 10^3/mm^3
T-Bil [1]: 0.00 mg/dL
TP [1]: 5.8 g/dL
Triglycerides [1]: 25 mg/dL
Urea N [1]: 20 mg/dL
WBC [1]: 6.50 10^3/mm^3
A/G [2]: 2.15
ALP [2]: 109.5 U/L
ALT [2]: 32.5 U/L
APTT [2]: 10.9 s
AST [2]: 122.0 U/L
Albumin [2]: 3.9 g/dL
Basophils [2]: 0.4%
Basophils absolute [2]: 0.04 10^3/mm^3
CK [2]: 474 U/L
Calcium [2]: 9.95 mg/dL
Chloride [2]: 105.0 mmol/L
Cholesterol [2]: 55.0 mg/dL
Creatinine [2]: 0.3 mg/dL
Eosinophils [2]: 3.3%
Eosinophils absolute [2]: 0.33 10^3/mm^3
Fibrinogen [2]: 283 mg/dL
GGT [2]: 0.0 U/L
Globulin [2]: 1.8 g/dL
Glucose [2]: 99 mg/dL
HDW [2]: 2.45 g/dL
Hct [2]: 41.2%
Hemoglobin [2]: 13.7 g/dL
K [2]: 5.05 mmol/L
LUC [2]: 0.35%
LUC absolute [2]: 0.04 10^3/mm^3
Lymphocyte absolute [2]: 7.13 10^3/mm^3
Lymphocytes [2]: 72.0%
MCH [2]: 19.0 pg
MCHC [2]: 33.3 g/dL
MCV [2]: 57.3 fL
Monocyte absolute [2]: 0.39 10^3/mm^3
Monocytes [2]: 3.5%
Na [2]: 142.5 mmol/L
Neutrophil absolute [2]: 2.18 10^3/mm^3
Neutrophils [2]: 19.9%
PT [2]: 17.1 s
Phos [2]: 7.05 mg/dL
Platelets [2]: 939 10^3/mm^3
RBC [2]: 7.21 10^6/mm^3
RDW [2]: 13.0%
Reticulocytes [2]: 4.1%
Reticulocytes absolute [2]: 277.3 10^3/mm^3
T-Bil [2]: 0.00 mg/dL
TP [2]: 5.7 g/dL
Triglycerides [2]: 26 mg/dL
Urea N [2]: 21 mg/dL
WBC [2]: 10.75 10^3/mm^3
A/G [3]: 3.00
ALP [3]: 142.0 U/L
ALT [3]: 62.0 U/L
APTT [3]: 29.2 s
AST [3]: 397.0 U/L
Albumin [3]: 3.0 g/dL
Basophils [3]: 0.5%
Basophils absolute [3]: 0.06 10^3/mm^3
CK [3]: 1,506 U/L
Calcium [3]: 10.30 mg/dL
Chloride [3]: 104.0 mmol/L
Cholesterol [3]: 52.0 mg/dL
Creatinine [3]: 0.5 mg/dL
Eosinophils [3]: 1.5%
Eosinophils absolute [3]: 0.13 10^3/mm^3
Fibrinogen [3]: 83 mg/dL
GGT [3]: 4.0 U/L
Globulin [3]: 1.0 g/dL
Glucose [3]: 218 mg/dL
HDW [3]: 2.37 g/dL
Hct [3]: 46.9%
Hemoglobin [3]: 15.2 g/dL
K [3]: 4.9 mmol/L
LUC [3]: 0.5%
LUC absolute [3]: 0.05 10^3/mm^3
Lymphocyte absolute [3]: 5.56 10^3/mm^3
Lymphocytes [3]: 60.5%
MCH [3]: 19.6 pg
MCHC [3]: 32.3 g/dL
MCV [3]: 61.0 fL
Monocyte absolute [3]: 0.33 10^3/mm^3
Monocytes [3]: 3.8%
Na [3]: 141 mmol/L
Neutrophil absolute [3]: 2.55 10^3/mm^3
Neutrophils [3]: 33.6%
PT [3]: 23.5 s
Phos [3]: 9.3 mg/dL
Platelets [3]: 604 10^3/mm^3
RBC [3]: 7.63 10^6/mm^3
RDW [3]: 12.2%
Reticulocytes [3]: 5.3%
Reticulocytes absolute [3]: 326.0 10^3/mm^3
T-Bil [3]: 0.00 mg/dL
TP [3]: 3.90 g/dL
Triglycerides [3]: 106 mg/dL
Urea N [3]: 20 mg/dL
WBC [3]: 8.15 10^3/mm^3
microscopic findings, liver (female rats, 5 and 10 mg/kg/day, end of treatment, non-adverse, recoverable): minimal to mild liver necrosis
microscopic findings, adrenal (male and female rats, 20 mg/kg): Mild to severe adrenal necrosis
body weight (male and female rats, 20 mg/kg dosing group): significant decreases in body weights
A/G [4]: 2.2
ALP [4]: 212.0 U/L
ALT [4]: 40.0 U/L
APTT [4]: 14.8 s
AST [4]: 133.0 U/L
Albumin [4]: 3.8 g/dL
Basophils [4]: 0.3%
Basophils absolute [4]: 0.03 10^3/mm^3
CK [4]: 766 U/L
Calcium [4]: 9.75 mg/dL
Chloride [4]: 104.5 mmol/L
Cholesterol [4]: 70.5 mg/dL
Creatinine [4]: 0.2 mg/dL
Eosinophils [4]: 3.9%
Eosinophils absolute [4]: 0.37 10^3/mm^3
Fibrinogen [4]: 263 mg/dL
GGT [4]: 0.0 U/L
Globulin [4]: 1.7 g/dL
Glucose [4]: 73 mg/dL
HDW [4]: 2.30 g/dL
Hct [4]: 43.8%
Hemoglobin [4]: 14.1 g/dL
K [4]: 5.15 mmol/L
LUC [4]: 0.3%
LUC absolute [4]: 0.03 10^3/mm^3
Lymphocyte absolute [4]: 6.03 10^3/mm^3
Lymphocytes [4]: 71.8%
MCH [4]: 20.0 pg
MCHC [4]: 32.1 g/dL
MCV [4]: 61.8 fL
Monocyte absolute [4]: 0.22 10^3/mm^3
Monocytes [4]: 2.9%
Na [4]: 144 mmol/L
Neutrophil absolute [4]: 2.04 10^3/mm^3
Neutrophils [4]: 20.2%
PT [4]: 16.0 s
Phos [4]: 8.45 mg/dL
Platelets [4]: 1,052 10^3/mm^3
RBC [4]: 7.06 10^6/mm^3
RDW [4]: 14.0%
Reticulocytes [4]: 5.2%
Reticulocytes absolute [4]: 359.7 10^3/mm^3
T-Bil [4]: 0.00 mg/dL
TP [4]: 5.5 g/dL
Triglycerides [4]: 37 mg/dL
Urea N [4]: 16.5 mg/dL
WBC [4]: 8.40 10^3/mm^3
A/G [5]: 2.35
ALP [5]: 212.5 U/L
ALT [5]: 32.5 U/L
APTT [5]: 14.6 s
AST [5]: 113.5 U/L
Albumin [5]: 3.7 g/dL
Basophils [5]: 0.3%
Basophils absolute [5]: 0.03 10^3/mm^3
CK [5]: 613 U/L
Calcium [5]: 9.70 mg/dL
Chloride [5]: 105.0 mmol/L
Cholesterol [5]: 66.0 mg/dL
Creatinine [5]: 0.3 mg/dL
Eosinophils [5]: 3.0%
Eosinophils absolute [5]: 0.31 10^3/mm^3
Fibrinogen [5]: 261 mg/dL
GGT [5]: 0.0 U/L
Globulin [5]: 1.6 g/dL
Glucose [5]: 83 mg/dL
HDW [5]: 2.20 g/dL
Hct [5]: 43.7%
Hemoglobin [5]: 14.2 g/dL
K [5]: 5.1 mmol/L
LUC [5]: 0.3%
LUC absolute [5]: 0.03 10^3/mm^3
Lymphocyte absolute [5]: 6.69 10^3/mm^3
Lymphocytes [5]: 70.9%
MCH [5]: 20.2 pg
MCHC [5]: 32.4 g/dL
MCV [5]: 62.6 fL
Monocyte absolute [5]: 0.28 10^3/mm^3
Monocytes [5]: 2.7%
Na [5]: 144 mmol/L
Neutrophil absolute [5]: 1.85 10^3/mm^3
Neutrophils [5]: 22.6%
PT [5]: 17.5 s
Phos [5]: 8.6 mg/dL
Platelets [5]: 1,086 10^3/mm^3
RBC [5]: 7.06 10^6/mm^3
RDW [5]: 13.1%
Reticulocytes [5]: 4.6%
Reticulocytes absolute [5]: 314.2 10^3/mm^3
T-Bil [5]: 0.00 mg/dL
TP [5]: 5.35 g/dL
Triglycerides [5]: 29 mg/dL
Urea N [5]: 19.0 mg/dL
WBC [5]: 10.05 10^3/mm^3
A/G [6]: 2.70
ALP [6]: 232.0 U/L
ALT [6]: 74.0 U/L
APTT [6]: 18.5 s
AST [6]: 245.0 U/L
Albumin [6]: 2.7 g/dL
Basophils [6]: 0.2%
Basophils absolute [6]: 0.03 10^3/mm^3
CK [6]: 707 U/L
Calcium [6]: 9.40 mg/dL
Chloride [6]: 101.0 mmol/L
Cholesterol [6]: 67.0 mg/dL
Creatinine [6]: 0.4 mg/dL
Eosinophils [6]: 1.1%
Eosinophils absolute [6]: 0.15 10^3/mm^3
Fibrinogen [6]: 98 mg/dL
GGT [6]: 0.0 U/L
Globulin [6]: 1.0 g/dL
Glucose [6]: 175 mg/dL
HDW [6]: 2.44 g/dL
Hct [6]: 37.3%
Hemoglobin [6]: 12.1 g/dL
K [6]: 5.1 mmol/L
LUC [6]: 0.5%
LUC absolute [6]: 0.07 10^3/mm^3
Lymphocyte absolute [6]: 4.24 10^3/mm^3
Lymphocytes [6]: 30.9%
MCH [6]: 20.0 pg
MCHC [6]: 31.8 g/dL
MCV [6]: 62.5 fL
Monocyte absolute [6]: 0.93 10^3/mm^3
Monocytes [6]: 8.1%
Na [6]: 140 mmol/L
Neutrophil absolute [6]: 8.40 10^3/mm^3
Neutrophils [6]: 61.1%
PT [6]: 21.3 s
Phos [6]: 9.3 mg/dL
Platelets [6]: 728 10^3/mm^3
RBC [6]: 6.04 10^6/mm^3
RDW [6]: 14.3%
Reticulocytes [6]: 6.4%
Reticulocytes absolute [6]: 373.3 10^3/mm^3
T-Bil [6]: 0.10 mg/dL
TP [6]: 3.7 g/dL
Triglycerides [6]: 193 mg/dL
Urea N [6]: 28 mg/dL
WBC [6]: 13.70 10^3/mm^3
microscopic findings, liver (male rats, 20 mg/kg, adverse): minimal to moderate liver necrosis
LOAEL (rats): 20 mg/kg
clinical signs (rats, once daily i.v. infusion 5 and 10 mg/kg/day, temporary, resolved in recovery): non-adverse, treatment-related clinical signs
acute, treatment-related mortality (rats, single i.v. 20 mg/kg, Day 1): 5 out of 12
